Measurements: US12528812B2 (Genentech, Inc., priority 2020, dated 2026)
Where two headings read alike, the source gives them in different places.

Assays:
[1] = molecular target: T1, recombinant human JAK1 kinase domain protein (Residues 854-1154) (Homo sapiens, UniProt P23458); assay: JAK1 biochemical assay (LabChip mobility shift, Ki); settings: read-out: Biochem JAK1 Ki
T1 construct: human JAK1 kinase domain protein (Residues 854-1154); purchased Proteros Biostructures GmbH (Martinsried, Germany); host or cells: insect cells

[2] = system: IL-13-stimulated P-STAT6 in TF-1 human erythroleukemia cells; assay: P-STAT6 TF-1 + IL-13 assay (JAK1 pathway); assay type: cell-based; settings: IL13 stimulation, read-out: Cellular JAK1 PSTAT6 TF-1 + IL13
Method: (§1) TF-1 human erythroleukemia cells (ATCC′; Manassas, VA; Catalog No. CRL-2003™) were grown in Roswell Park Memorial Institute (RPMI) medium supplemented with 10% heat-inactivated fetal bovine serum (FBS), 2 ng/mL granulocyte-macrophage colony-stimulating factor, 1× non-essential amino acids (NEAA), and 1 mM sodium pyruvate. The day before the assay, the cultures were transferred to Opti-MEM™, 1×NEAA, 1 mM sodium pyruvate, and 0.5% charcoal-stripped FBS (starve medium). Inhibitor stock solutions (5 mM in DMSO) were serially diluted 1:2 in DMSO to generate a 10-point concentration titration (at 500× test concentration), which was further diluted by a 50-fold dilution in Assay Medium (RPMI containing 1×NEAA and 1 mM sodium pyruvate) to generate a 10× concentration titration (in 2% DMSO). The cells (300,000 cells/well in 35 μL of Assay Medium) were seeded in 384-well Greiner plates. Diluted inhibitor at 10× concentration (5 μL) was added to the cells and the plates were incubated for 30 minutes at 37° C. in a humidified incubator. Cells were stimulated with the human recombinant cytokine at the respective EC90 concentrations, as previously determined for each individual lot. For the phosphorylated signal transducer and activator of transcription 6 (P-STAT6) TF-1+Interleukin-13 (IL-13) assay, 10 μL of 250 ng/mL IL-13 (R&D Systems; Minneapolis, MN) was added to the cells, which were then incubated for 10 minutes at 37° C. For the P-STAT5 TF-1+Erythropoietin (EPO) assay, 10 μL of 110 IU/mL EPO (Gibco Life Technologies, Catalog No. PHC2054) was added to the cells, which were then incubated for […] at 37° C. For both assays, the incubation was followed by addition to the cells of 5 μL of ice-cold 10× cell lysis buffer (Cell Signaling Technologies; Danvers, MA; Catalog No. 9803S) containing 1 mM phenylmethylsulfonyl fluoride (PMSF). Assay plates were frozen at −80° C. for a minimum of 1 hour. In the IL-13 assay, P-STAT6 was measured by coating goat anti-rabbit (GAR) plates (Meso Scale Discovery [MSD]; Rockville, MD; Catalog No. MSD L21RA-1) with rabbit anti-human total STAT6 antibody (Cell Signaling Technologies; Catalog No. 9362S), incubating the cell lysates in the coated plates overnight at 4° C., and then detecting with mouse anti-P-STAT6 (Tyr641) Clone 16E12 antibody (MilliporeSigma; Burlington, MA; Catalog No. 05-590, custom labeled by MSD with SULFO-tag) using standard MSD plate processing, washing, and detection protocols. In the EPO assay, P-STAT5 was detected using the phospho-STAT5a,b Whole Cell Lysate Kit (MSD; Catalog No. K150IGD-1). The electrochemiluminescence (ECL) signal of wells was read on the MESO SECTOR 5600 (MSD) reader.
(§2) Data analysis was performed by subtracting the negative control (cytokine stimulated and 20 μM control inhibitor-treated cells) mean ECL value from the ECL value of all wells, determining percent of control for test compound well ECL values relative to the positive control (cytokine stimulated and DMSO-treated cells) mean ECL value, and determining the IC50 for test compounds with a four-parameter logistic fit model as shown in Equation 4.

[3] = system: EPO-stimulated P-STAT5 in TF-1 human erythroleukemia cells; assay: P-STAT5 TF-1 + EPO assay (JAK2 pathway); assay type: cell-based; settings: EPO stimulation, read-out: Cellular JAK2 PSTAT5 TF-1 + EPO
Method: as §1, §2

[4] = system: IL-13-stimulated STAT6 phosphorylation in human lung bronchial epithelial BEAS-2B cell line; assay: P-STAT6 BEAS-2B + IL-13 cell assay; assay type: cell-based; settings: BEAS2B cells, IL13 stimulation, read-out: Cellular JAK1 PSTAT6 BEAS2B + IL13
How it was run: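 BEAS-2B cells grown 48 h at 37 °C, pre-treated 1 h with compound (10-point 1:2 dilution curve), then stimulated 15 min with human recombinant IL-13 (250 ng/mL stock). Lysate P-STAT6 (Tyr641) read by MSD sandwich ELISA with total-STAT6 capture; IC50 from four-parameter logistic fit of control-normalised data.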

[5] = molecular target: Recombinant human JAK2 kinase domain protein (Residues 812-1132) (Homo sapiens, UniProt O60674); assay: JAK2 biochemical assay (LabChip mobility shift, Ki); settings: Biochem JAK2 Ki
Sequence of Recombinant human JAK2 kinase domain protein (Residues 812-1132) (O60674 812-1132): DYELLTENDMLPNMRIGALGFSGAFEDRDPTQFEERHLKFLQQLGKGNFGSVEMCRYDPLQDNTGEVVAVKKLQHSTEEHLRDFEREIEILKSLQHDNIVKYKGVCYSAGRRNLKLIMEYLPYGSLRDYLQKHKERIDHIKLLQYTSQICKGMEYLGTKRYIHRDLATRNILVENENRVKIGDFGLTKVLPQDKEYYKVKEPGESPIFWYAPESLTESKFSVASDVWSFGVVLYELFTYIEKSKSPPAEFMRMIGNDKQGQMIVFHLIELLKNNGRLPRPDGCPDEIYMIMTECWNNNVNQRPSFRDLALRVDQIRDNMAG

T1 sequence (P23458 854-1154): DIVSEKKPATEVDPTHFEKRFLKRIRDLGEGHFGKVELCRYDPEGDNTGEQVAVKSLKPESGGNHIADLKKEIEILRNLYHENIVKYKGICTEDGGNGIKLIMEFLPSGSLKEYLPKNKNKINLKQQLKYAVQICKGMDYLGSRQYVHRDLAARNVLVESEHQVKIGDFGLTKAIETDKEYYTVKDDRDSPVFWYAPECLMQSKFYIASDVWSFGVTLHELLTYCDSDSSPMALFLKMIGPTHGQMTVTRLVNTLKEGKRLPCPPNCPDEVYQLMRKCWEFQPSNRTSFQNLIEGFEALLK

Structure (SMILES)	Ki [1]	IC50 ([2]; TF-1 cells)	IC50 ([3]; TF-1 cells)	IC50 [4]	Ki [5]	IC50 ([2]; Homo sapiens, TF-1, TF-1 cells)	IC50 ([3]; Homo sapiens, TF-1, TF-1 cells)	IC50 ([4]; Homo sapiens, BEAS-2B)
CN1CCC(n2cc(Oc3ccc(OC(F)F)c(-c4nn(C)cc4NC(=O)c4cnn5cccnc45)c3)cn2)C(O)C1 (stereo not shown) [Example 187, N-[3-[2-(difluoromethoxy)-5-[1-(3-hydroxy-1-methyl-4-piperidyl)pyrazol-4-yl]oxy-phenyl]-1-methyl-pyrazol-4-yl]pyrazolo[1,5-a]pyrimidine-3-carboxamide]	0.35 nM	34 nM	38 nM	44 nM	0.24 nM	–	–	–
CN1CC(O)(c2cccc(Oc3ccc(OC(F)F)c(-c4nn(C)cc4NC(=O)c4cnn5cccnc45)c3)n2)C1 [Example 190, N-[3-[2-(difluoromethoxy)-5-[[6-(3-hydroxy-l-methyl-azetidin-3-yl)-2-pyridyl]oxy]phenyl]-1-methyl-pyrazol-4-yl]pyrazolo[1,5-a]pyrimidine-3-carboxamide]	1.4 nM	–	–	–	1 nM	180 nM	130 nM	38 nM
CC(=O)n1cc(Oc2ccc(OC(F)F)c(-c3nn(C)cc3NC(=O)c3cnn4cccnc34)c2)cn1 [Example 192, N-[3-[5-(1-acetylpyrazol-4-yl)oxy-2-(difluoromethoxy)phenyl]-1-methyl-pyrazol-4-yl]pyrazolo[1,5-a]pyrimidine-3-carboxamide]	0.28 nM	–	–	–	0.2 nM	3.3 nM	2.1 nM	9.3 nM
Cn1cc(NC(=O)c2cnn3cccnc23)c(-c2cc(Oc3cnn(S(C)(=O)=O)c3)ccc2OC(F)F)n1 [Example 195, N-[3-[2-(difluoromethoxy)-5-(1-methylsulfonylpyrazol-4-yl)oxy-phenyl]-1-methyl-pyrazol-4-yl]pyrazolo[1,5-a]pyrimidine-3-carboxamide]	0.38 nM	–	–	–	0.26 nM	4.1 nM	9.7 nM	13 nM
CC(C)N1CC(O)(Cn2cc(Oc3ccc(OC(F)F)c(-c4nn(C)cc4NC(=O)c4cnn5cccnc45)c3)cn2)C1 [Example 201, N-[3-[2-(difluoromethoxy)-5-[1-[(3-hydroxy-1-isopropyl-azetidin-3-yl)methyl]pyrazol-4-yl]oxy-phenyl]-1-methyl-pyrazol-4-yl]pyrazolo[1,5-a]pyrimidine-3-carboxamide]	0.46 nM	–	–	–	0.34 nM	14 nM	21 nM	34 nM
